Measurements taken from ChEMBL document CHEMBL1255329, “Effect of polysorbate 80 on oritavancin binding to plastic surfaces: implications for susceptibility testing” (2008).

How the values were obtained:
Type in all cases: functional
[1] = tested on: Streptococcus pneumoniae; experiment: Antibacterial activity against Streptococcus pneumoniae ATCC 49619 in CAMHB medium containing 2% LHB by broth microdilution method in presence of 0.002% polysorbate 80
[2] = tested on: Streptococcus agalactiae; experiment: Antibacterial activity against Streptococcus agalactiae clinical isolate using 2% LHB by broth microdilution method in presence of 0.002% polysorbate 80
[3] = tested on: Streptococcus pyogenes; experiment: Ratio of MIC for Streptococcus pyogenes clinical isolate to MIC for Streptococcus pyogenes clinical isolate in presence of 0.002% polysorbate 80
[4] = tested on: Streptococcus pneumoniae; experiment: Antibacterial activity against Streptococcus pneumoniae ATCC 49619 in BHI broth containing 2% LHB by broth microdilution method in absence of 0.002% polysorbate 80
[5] = tested on: Enterococcus faecalis; experiment: Antibacterial activity against Enterococcus faecalis ATCC 29212 in CAMHB medium by broth microdilution method in absence of 0.002% polysorbate 80
[6] = tested on: Staphylococcus aureus; experiment: Antibacterial activity against Staphylococcus aureus clinical isolate by broth microdilution method
[7] = tested on: Staphylococcus aureus; experiment: Antibacterial activity against Staphylococcus aureus ATCC 29213 in CAMHB medium by broth microdilution method in presence of 0.002% polysorbate 80
[8] = tested on: Enterococcus faecalis; experiment: Antibacterial activity against Enterococcus faecalis ATCC 29212 in CAMHB medium containing 2% LHB by broth microdilution method in presence of 0.002% polysorbate 80
[9] = tested on: Streptococcus pyogenes; experiment: Antibacterial activity against Streptococcus pyogenes clinical isolate by broth microdilution method in presence of 0.002% polysorbate 80
[10] = tested on: Streptococcus pneumoniae; experiment: Antibacterial activity against Streptococcus pneumoniae ATCC 49619 in BHI broth by broth microdilution method in presence of 0.002% polysorbate 80
[11] = Antibacterial activity against Streptococcus Group C clinical isolate by broth microdilution method in presence of 0.002% polysorbate 80; settings: Streptococcus sp. 'group C'
[12] = tested on: Staphylococcus; experiment: Ratio of MIC for coagulase-negative Staphylococcus clinical isolate to MIC for coagulase-negative Staphylococcus clinical isolate in presence of 0.002% polysorbate 80
[13] = tested on: Streptococcus agalactiae; experiment: Ratio of MIC for Streptococcus agalactiae clinical isolate to MIC for Streptococcus agalactiae clinical isolate in presence of 0.002% polysorbate 80
[14] = tested on: Streptococcus viridans; experiment: Ratio of MIC for Streptococcus viridans group clinical isolate to MIC for Streptococcus viridans group clinical isolate in presence of 0.002% polysorbate 80
[15] = tested on: Enterococcus faecium; experiment: Ratio of MIC for Enterococcus faecium clinical isolate to MIC for Enterococcus faecium clinical isolate in presence of 0.002% polysorbate 80
[16] = tested on: Streptococcus pneumoniae; experiment: Antibacterial activity against Streptococcus pneumoniae clinical isolate by broth microdilution method
[17] = tested on: Streptococcus agalactiae; experiment: Antibacterial activity against Streptococcus agalactiae clinical isolate using 2% LHB by broth microdilution method
[18] = tested on: Streptococcus pneumoniae; experiment: Ratio of MIC for Streptococcus pneumoniae clinical isolate to MIC for Streptococcus pneumoniae clinical isolate in presence of 0.002% polysorbate 80
[19] = tested on: Streptococcus pneumoniae; experiment: Antibacterial activity against Streptococcus pneumoniae ATCC 49619 in CAMHB medium containing 2% LHB by broth microdilution method in absence of 0.002% polysorbate 80
[20] = tested on: Enterococcus faecalis; experiment: Ratio of MIC for Enterococcus faecalis clinical isolate to MIC for Enterococcus faecalis clinical isolate in presence of 0.002% polysorbate 80
[21] = tested on: Streptococcus viridans; experiment: Antibacterial activity against Streptococcus viridans group clinical isolate by broth microdilution method in presence of 0.002% polysorbate 80
[22] = Antibacterial activity against Streptococcus Group G clinical isolate by broth microdilution method; settings: Streptococcus sp. 'group G'
[23] = tested on: Streptococcus pneumoniae; experiment: Antibacterial activity against Streptococcus pneumoniae ATCC 49619 in BHI broth by broth microdilution method in absence of 0.002% polysorbate 80
[24] = tested on: Staphylococcus aureus; experiment: Antibacterial activity against Staphylococcus aureus ATCC 29213 in CAMHB medium by broth microdilution method in absence of 0.002% polysorbate 80
[25] = tested on: Streptococcus viridans; experiment: Antibacterial activity against Streptococcus viridans group clinical isolate by broth microdilution method
[26] = tested on: Enterococcus faecalis; experiment: Antibacterial activity against Enterococcus faecalis ATCC 29212 in CAMHB medium by broth microdilution method in presence of 0.002% polysorbate 80
[27] = tested on: Enterococcus faecalis; experiment: Antibacterial activity against Enterococcus faecalis ATCC 29212 in CAMHB medium containing 2% LHB by broth microdilution method in absence of 0.002% polysorbate 80
[28] = Antibacterial activity against Streptococcus Group G clinical isolate by broth microdilution method in presence of 0.002% polysorbate 80; settings: Streptococcus sp. 'group G'
[29] = tested on: Staphylococcus aureus; experiment: Antibacterial activity against Staphylococcus aureus ATCC 29213 in CAMHB medium containing 2% LHB by broth microdilution method in presence of 0.002% polysorbate 80
[30] = tested on: Staphylococcus aureus; experiment: Antibacterial activity against Staphylococcus aureus clinical isolate by broth microdilution method in presence of 0.002% polysorbate 80
[31] = tested on: Enterococcus faecalis; experiment: Antibacterial activity against Enterococcus faecalis clinical isolate by broth microdilution method
[32] = tested on: Staphylococcus aureus; experiment: Antibacterial activity against Staphylococcus aureus ATCC 29213 in CAMHB medium containing 2% LHB by broth microdilution method in absence of 0.002% polysorbate 80
[33] = tested on: Staphylococcus; experiment: Antibacterial activity against coagulase-negative Staphylococcus clinical isolate by broth microdilution method
[34] = tested on: Enterococcus faecium; experiment: Antibacterial activity against Enterococcus faecium clinical isolate by broth microdilution method
[35] = tested on: Enterococcus faecium; experiment: Antibacterial activity against Enterococcus faecium clinical isolate by broth microdilution method in presence of 0.002% polysorbate 80
[36] = tested on: Enterococcus faecalis; experiment: Antibacterial activity against Enterococcus faecalis clinical isolate by broth microdilution method in presence of 0.002% polysorbate 80
[37] = tested on: Streptococcus pneumoniae; experiment: Antibacterial activity against Streptococcus pneumoniae clinical isolate by broth microdilution method in presence of 0.002% polysorbate 80
[38] = tested on: Streptococcus pneumoniae; experiment: Antibacterial activity against Streptococcus pneumoniae ATCC 49619 in BHI broth containing 2% LHB by broth microdilution method in presence of 0.002% polysorbate 80
[39] = tested on: Staphylococcus aureus; experiment: Ratio of MIC for Staphylococcus aureus clinical isolate to MIC for Staphylococcus aureus clinical isolate in presence of 0.002% polysorbate 80
[40] = tested on: Staphylococcus; experiment: Antibacterial activity against coagulase-negative Staphylococcus clinical isolate by broth microdilution method in presence of 0.002% polysorbate 80
[41] = Antibacterial activity against Streptococcus Group C clinical isolate by broth microdilution method; settings: Streptococcus sp. 'group C'
[42] = tested on: Streptococcus pyogenes; experiment: Antibacterial activity against Streptococcus pyogenes clinical isolate by broth microdilution method
[43] = tested on: Staphylococcus aureus; experiment: Antibacterial activity against Staphylococcus aureus ATCC 29213 assessed as reduction in compound MIC by broth microdilution method in presence of 0.002% polysorbate 80 in inoculum
[44] = tested on: Staphylococcus aureus; experiment: Antibacterial activity against Staphylococcus aureus ATCC 29213 assessed as reduction in compound MIC by broth microdilution method in presence of 0.002% polysorbate 80 in solvent

CC(=O)N[C@@H]1[C@H](Oc2c3cc4cc2Oc2ccc(cc2Cl)[C@@H](O[C@@H]2O[C@@H](CO)[C@@H](O)[C@H](O)[C@@H]2NC(C)=O)[C@@H]2NC(=O)[C@H](NC(=O)[C@@H]4NC(=O)[C@H]4NC(=O)[C@@H](Cc5ccc(c(Cl)c5)O3)NC(=O)[C@H](N)c3ccc(O)c(c3)Oc3cc(O)cc4c3)c3ccc(O)c(c3)-c3c(O[C@H]4O[C@H](CO)[C@@H](O)[C@@H](O)[C@@H]4O)cc(O)cc3[C@@H](C(=O)O)NC2=O)O[C@@H](CO)[C@@H](O)[C@@H]1O
0.5 mg/L: MIC [5] | MIC90 [6] | MIC [7] | MIC [8] | MIC [24] | MIC [26] | MIC [29] | MIC90 [30] | MIC90 [31]
2 mg/L: MIC90 [33] | MIC90 [40]
0.06 mg/L: MIC90 [2] | MIC [16] | MIC90 [16] | MIC90 [17] | MIC [37] | MIC90 [37] | MIC90 [42]
4: Ratio [20]
1 mg/L: MIC [27] | MIC [32]
64 mg/L: MIC90 [34]
0.5: Ratio [14] | Ratio [15]
128 mg/L: MIC90 [35]
0.03 mg/L: MIC [1] | MIC [4] | MIC90 [9] | MIC [10] | MIC [11] | MIC [19] | MIC [22] | MIC [23] | MIC [28] | MIC [38] | MIC [41]
0.12 mg/L: MIC90 [21] | MIC90 [25] | MIC90 [36]
1: Ratio [12] | Ratio [13] | Ratio [18] | Ratio [39]
2: Ratio [3]

O=C(O)c1cn(C2CC2)c2cc(N3CCNCC3)c(F)cc2c1=O [CIPROFLOXACIN]
0.5 mg/L: MIC [5] | MIC [7] | MIC [8] | MIC [24] | MIC [26] | MIC [27] | MIC [29] | MIC [32]
1 mg/L: MIC [1] | MIC [38]

CN[C@H](CC(C)C)C(=O)N[C@H]1C(=O)N[C@@H](CC(N)=O)C(=O)N[C@H]2C(=O)N[C@H]3C(=O)N[C@H](C(=O)N[C@H](C(=O)O)c4cc(O)cc(O)c4-c4cc3ccc4O)[C@H](O[C@H]3C[C@](C)(N)[C@@H](O)[C@H](C)O3)c3ccc(c(Cl)c3)Oc3cc2cc(c3O[C@@H]2O[C@H](CO)[C@@H](O)[C@H](O)[C@H]2O[C@H]2C[C@](C)(NCc3ccc(-c4ccc(Cl)cc4)cc3)[C@@H](O)[C@H](C)O2)Oc2ccc(cc2Cl)[C@H]1O [ORITAVANCIN]
0.5 mg/L: MIC [5]
0.03 mg/L: MIC [7] | MIC [8] | MIC [26] | MIC [29] | MIC [32]
4 mg/L: MIC90 [6] | MIC90 [33] | MIC90 [34]
32: Ratio [39]
4: fold change (FC) [43]
1: Ratio [3] | Ratio [14] | Ratio [18]
2 mg/L: MIC90 [31]
0.004 mg/L: MIC [11] | MIC90 [16] | MIC [22] | MIC [28] | MIC90 [37] | MIC [41]
0.25 mg/L: MIC90 [2] | MIC90 [9] | MIC90 [35] | MIC90 [40] | MIC90 [42]
0.001 mg/L: MIC [4] | MIC [10] | MIC [19] | MIC [38]
0.002 mg/L: MIC [1]
16: Ratio [12] | Ratio [15] | Ratio [20] | fold change (FC) [44]
0.016 mg/L: MIC [27]
0.008 mg/L: MIC [23]
1 mg/L: MIC90 [17] | MIC90 [21] | MIC [24] | MIC90 [25]
0.12 mg/L: MIC90 [30] | MIC90 [36]

CN[C@H](CC(C)C)C(=O)N[C@H]1C(=O)N[C@@H](CC(N)=O)C(=O)N[C@H]2C(=O)N[C@H]3C(=O)N[C@H](C(=O)N[C@H](C(=O)O)c4cc(O)cc(O)c4-c4cc3ccc4O)[C@H](O)c3ccc(c(Cl)c3)Oc3cc2cc(c3O[C@@H]2O[C@H](CO)[C@@H](O)[C@H](O)[C@H]2O[C@H]2C[C@](C)(N)[C@H](O)[C@H](C)O2)Oc2ccc(cc2Cl)[C@H]1O [VANCOMYCIN]
1 mg/L: MIC90 [6] | MIC90 [30] | MIC90 [33]
0.12 mg/L: MIC [11] | MIC [41]
0.25 mg/L: MIC [1] | MIC [4] | MIC [9] | MIC90 [9] | MIC [10] | MIC90 [16] | MIC [19] | MIC [22] | MIC [23] | MIC [28] | MIC90 [37] | MIC [38] | MIC [42] | MIC90 [42]
2 mg/L: MIC [27] | MIC90 [31] | MIC90 [36] | MIC90 [40]
> 256 mg/L: MIC90 [34] | MIC90 [35]
0.5 mg/L: MIC90 [2] | MIC90 [17] | MIC90 [21] | MIC90 [25]
